As a reminder, the EC80 is the concentration needed for an effect of 80%. The inhibition is the percentage by which the read-out fell short of the control.

Test [1] has as its system Septoria tritici. Description: Assay for fungicidal effect on Septoria tritici, plate medium 0.02 mg/L (Experimental Example 7). Format: cell-based. From the text: In this Experimental Example, the fungicidal effects of the inventive compounds on a phytopathogenic fungi, Septoria tritici were examined and compared to the Comparative Compound (3) described in Patent Literature 1 (JPA01-93574) by the methods described below. […] The subject microorganism previously cultured on a plate medium was cut out using a cork borer whose diameter was 4 mm, and inoculated to the test compound-containing plate medium described above. […] The growth degree of the microorganism on the test compound-containing plate medium thus observed was compared with the growth degree of the microorganism in the untreated group, and % mycelial growth inhibition was calculated by the following equation. R=100(dc−dt)/dc wherein R=% mycelial extension inhibition, dc=flora diameter in untreated plate, dt=flora diameter in treated plate. The results obtained as described above were evaluated as one of the 5 grades according to the following criteria. <Growth Inhibition Grade> […]

The subject of test [2] is Puccinia recondita. Briefly: Efficacy test against wheat brown rust, 2 mg/L (Experimental Example 8). Format: in vivo. The conditions noted are these: sprayed at 1,000 L/ha, concentration printed 0.02 mg/L, 9 to 14 days after inoculation. The protocol:
Onto a wheat plant (variety: […] The sprayed leaves were air-dried, and inoculated with spore suspension of Puccinia recondita (adjusted at 200 spores/vision, […] was added at 60 ppm) by spraying, and kept at 25 degrees C. and a high humidity for 48 hours. Thereafter, the plant was kept in a greenhouse. Nine to 14 days after inoculation, the wheat brown rust lesion degree was investigated, and the protective value was calculated by the following equation. Protective value (%)=(1-lesion degree in sprayed plot/lesion degree in unsprayed plot)×100

For test [3], the system named is Septoria tritici. Description: Microplate test of biocidal effect on wheat Septoria blotch (Experimental Example 4). Format: cell-based. As to conditions: Zymoseptoria tritici, 240 h; % mycelium growth inhibition, absorbance 550 nm, 20 degrees C. for about 10 days; read-out: activity level (EC80). As for the experimental part:
A spore suspension of wheat Septoria blotch (Septoria tritici) (spore concentration: 1×10^6 cells/ml) was prepared, and subjected to 100-fold dilution with a PD medium. A flat 96-well microplate was provided and 1 microliter of the test compound solution formed by dissolution in dimethyl sulfoxide (DMSO) at a concentration 100 times the test concentration was dispensed to the microplate, and then 100 microliter of the medium containing the spore was added and stirred thoroughly. […] R=100×(dc−dt)/dc: R: % mycelium growth inhibition dc: Absorbance of non-treatment zone dt: Absorbance of treatment zone

Test [4] concerns Septoria tritici. Briefly: Assay for fungicidal effect on Septoria tritici, plate medium 1.25 mg/L (Experimental Example 9). Format: cell-based. The conditions noted are these: Zymoseptoria tritici, read-out: growth inhibition grade. As for the experimental part:
Each inventive compound was dissolved in 2 ml of dimethyl sulfoxide. 0.6 ml of this solution was added to 60 nil of a PDA medium (potato dextrose agar medium) at about 60 degrees C., which was mixed thoroughly in a 100-ml conical flask, and poured into a dish, where it was solidified, thereby obtaining a plate medium containing the inventive compound at 50 mg/L and 5 mg/L. On the other hand, a subject microorganism previously cultured on a plate medium was cut out using a cork borer whose diameter was 4 mm, and inoculated to the test compound-containing plate medium described above. […] The growth degree of the microorganism on the test compound-containing plate medium thus observed was compared with the growth degree of the microorganism in the untreated group, and % mycelial growth inhibition was calculated by the following equation. R=100(dc−dt)/dc wherein R=% mycelial extension inhibition, dc=flora diameter in untreated plate, dt=flora diameter in treated plate. The results obtained as described above were evaluated as one of the 5 grades according to the following criteria. […] In this Experimental Example, the fungicidal effects of the inventive compounds on Septoria tritici were examined by the methods described in the Experimental Example 5. In this Experimental Example, the inventive compounds were diluted at 1.25 mg/L.

Test [5] has as its system Puccinia recondita. Description: Efficacy test against wheat brown rust, 1 mg/L (Experimental Example 10). Format: in vivo. As to conditions: 1 g/ha (1 mg/L sprayed at 1,000 L/ha).

SMILES strings stand for the structures. In brackets after ≈: the same amount, converted by molar mass.

For the molecule `CC1(C)CC[C@@H](Cc2ccc(F)cc2)[C@]1(O)Cn1cncn1` (racemic) [Compound (3)], the “grade (growth inhibition grade)” value in test [1] was 2 (% Mycerial growth inhibition of less than 40 to 20% or higher). Further, the “degree (wheat brown rust lesion degree)” value in test [2] is 3 (10% or higher and less than 30%).

`CC1(C)CC[C@H](Cc2ccc(Cl)cc2)[C@@]1(O)Cn1cncn1` (racemic) [comparative compound (I), (1RS,5SR)-5-(4-chlorobenzyl)-2,2-dimethyl-1-(1H-1,2,4-triazol-1-ylmethyl)cyclopentanol, reference compound]: in test [3], the EC80 is 0.4 µg/mL (≈ 1.25 µM). Besides, the inhibition at 1.25 µg/mL in test [4] was in the range of 40 to 60%. The lesion degree in test [5] is 3 (10% or higher and less than 30%).

Source of the values: patent US9145351B2, “Azole derivatives, methods for producing the same, intermediate thereof, agro-horticultural agents” (KUREHA CORPORATION, priority 2009, dated 2015).
